Measurements from patent US20220313698A1, “MODULATORS OF CYSTIC FIBROSIS TRANSMEMBRANE CONDUCTANCE REGULATOR” (Vertex Pharmaceuticals Incorporated, priority 2019, published 2022).

Experiments:
[1] = target: T1, CFTR-mediated chloride transport (Homo sapiens, UniProt P13569); assay: Corrector Assay B - membrane potential dye assay (enteroid cells); conditions: for Corrector Assay B % activity: % of chloride transport of triple combination control (3 μM Compound A + 3 μM tezacaftor + 300 nM ivacaftor); for EC50: read-out: Corrector Assay B EC50, human intestinal enteroid cells, 18-24 h incubation, acute 10 μM forskolin + 300 nM ivacaftor;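 for all read-outs here: methyl oxonol membrane potential fluorescence followed over 15 min after switching to chloride-free buffer with forskolin, 100 µM IBMX and ivacaftor, in presence of CaCC blockers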
[2] = target: T1, CFTR-mediated chloride transport; assay: Corrector Assay A - membrane potential dye assay (enteroid cells); conditions: for Corrector Assay A % activity: % of chloride transport of triple combination control (1 μM (14S)-dispiro macrocycle + 3 μM tezacaftor + 300 nM ivacaftor); for EC50: read-out: Corrector Assay A EC50, human intestinal enteroid cells, 18-24 h incubation, acute 10 μM forskolin + 300 nM ivacaftor
Procedure: Base medium (ADF+++) consisted of Advanced DMEM/Ham's F12, 2 mM Glutamax, 10 mM HEPES, 1 μg/ml penicillin/streptomycin.
Intestinal enteroid maintenance medium (IEMM) consisted of ADF+++, 1×B27 supplement, 1×N2 supplement, 1.25 mM N-acetyl cysteine, 10 mM Nicotinamide, 50 ng/mL hEGF, 10 nM Gastrin, 1 μg/mL hR-spondin-1, 100 ng/mL hNoggin, TGF-b type 1 inhibitor A-83-01, 100 μg/mL Primocin, 10 μM P38 MAPK inhibitor SB202190.
Bath 1 Buffer consisted of 1 mM MgCl2, 160 mM NaCl, 4.5 mM KCl, 10 mM HEPES, 10 mM Glucose, 2 mM CaCl2).
Chloride Free Buffer consisted of 1 mM Magnesium Gluconate, 2 mM Calcium Gluconate, 4.5 mM Potassium Gluconate, 160 mM Sodium Gluconate, 10 mM HEPES, 10 mM Glucose.
Bath 1 Dye Solution consisted of Bath 1 Buffer, 0.04% Pluronic F127, 20 μM Methyl Oxonol, 30 μM CaCCinh-A01, 30 μM Chicago Sky Blue.
Chloride Free Dye Solution consisted of Chloride Free Buffer, 0.04% Pluronic F127, 20 μM Methyl Oxonol, 30 μM CaCCinh-A01, 30 μM Chicago Sky Blue.
Chloride Free Dye Stimulation Solution consisted of Chloride Free Dye Solution, 10 μM forskolin, 100 μM IBMX, and 300 nM Ivacaftor.
Cells were recovered in cell recovery solution, collected by centrifugation at 650 rpm for 5 min at 4° C., resuspended in TryPLE and incubated for 5 min at 37° C. Cells were then collected by centrifugation at 650 rpm for 5 min at 4° C. and resuspended in IEMM containing 10 μM ROCK inhibitor (RI). The cell suspension was passed through a 40 μm cell strainer and resuspended at 1×10^6 cells/mL in IEMM containing 10 μM RI. Cells were seeded at 5000 cells/well into multi-well plates and incubated for overnight at 37° C., 95% humidity and 5% CO2 prior to assay.
Briefly, cells were washed 5 times in Bath 1 Buffer. Bath 1 Dye Solution was added and the cells were incubated for 25 min at room temperature. Following dye incubation, cells were washed 3 times in Chloride Free Dye Solution. Chloride transport was initiated by addition of Chloride Free Dye Stimulation Solution and the fluorescence signal was read for 15 min. The CFTR-mediated chloride transport for each condition was determined from the AUC of the fluorescence response to acute forskolin and 300 nM N-[2,4-bis(1,1-dimethylethyl)-5-hydroxyphenyl]-1,4-dihydro-4-oxoquinoline-3-carboxamide stimulation. Chloride transport was then expressed as a percentage of the chloride transport following treatment with 1 μM (14S)-8-[3-(2-{Dispiro[2.0.2.1]heptan-7-yl}ethoxy)-1H-pyrazol-1-yl]-12,12-dimethyl-2λ^6-thia-3,9,11,18,23-pentaazatetracyclo[17.3.1.111,14.05,10]tetracosa-1(22),5,7,9,19(23),20-hexaene-2,2,4-trione, 3 μM (R)-1-(2,2-difluorobenzo[d][1,3]dioxol-5-yl)-N-(1-(2,3-dihydroxypropyl)-6-fluoro-2-(1-hydroxy-2-methylpropan-2-yl)-1H-indol-5-yl)cyclopropanecarboxamide and 300 nM acute N-[2,4-bis(1,1-dimethylethyl)-5-hydroxyphenyl]-1,4-dihydro-4-oxoquinoline-3-carboxamide triple combination control (% Activity).

CC1(C)CC2CC(c3ccccc3)CNc3cccc(n3)S(=O)(=O)NC(=O)c3ccc(-n4ccc(OCCC5(C(F)(F)F)CC5)n4)nc3N1C2 (single isomer, unassigned) [Compound 389, 12,12-dimethyl-16-phenyl-8-(3-{2-[1-(trifluoromethyl)cyclopropyl]ethoxy}-1H-pyrazol-1-yl)-2λ^6-thia-3,9,11,18,23-pentaazatetracyclo[17.3.1.111,14.05,10]tetracosa-1(22),5,7,9,19(23),20-hexaene-2,2,4-trione]
Corrector Assay B % activity [1]: +++ (+++ is >60%)
EC50 [1]: < 1 µM
Corrector Assay A % activity [2]: +++ (+++ is >60%)
EC50 [2]: < 1 µM

CC(C)(C)c1ccc2c(n1)N1C[C@@H](CC[C@@H](c3ccccc3)Nc3cccc(n3)S(=O)(=O)NC2=O)CC1(C)C (single isomer, unassigned) [Compound 294]
Corrector Assay B % activity [1]: +++ (+++ is >60%)
EC50 [1]: < 1 µM
Corrector Assay A % activity [2]: +++ (+++ is >60%)
EC50 [2]: < 1 µM

CC1(C)C[C@@H]2CCC(c3ccccc3)Nc3cccc(n3)S(=O)(=O)NC(=O)c3ccc(-n4ccc(OCCC5C6(CC6)C56CC6)n4)nc3N1C2 (single isomer, unassigned) [Compound 364]
Corrector Assay B % activity [1]: +++ (+++ is >60%)
Corrector Assay A % activity [2]: +++ (+++ is >60%)
EC50 [2]: < 1 µM

CC1(C)C[C@@H]2CCC(c3ccccn3)Nc3cccc(n3)S(=O)(=O)NC(=O)c3ccc(-n4ccc(OCCC5(C(F)(F)F)CC5)n4)nc3N1C2 (single isomer, unassigned) [Compound 362]
Corrector Assay B % activity [1]: +++ (+++ is >60%)
Corrector Assay A % activity [2]: +++ (+++ is >60%)
EC50 [2]: < 1 µM

CC(C)(C)c1ccc2c(n1)N1C[C@@H](CC[C@@H](c3ccccc3)Nc3cccc(n3)S(=O)(=O)NC2=O)CC1(C)C (single isomer, unassigned) [Compound 295]
Corrector Assay B % activity [1]: +++ (+++ is >60%)
EC50 [1]: < 1 µM
Corrector Assay A % activity [2]: ++ (++ is 30-60%)
EC50 [2]: < 1 µM

CC1(C)CC2CC(c3ccccc3)CNc3cccc(n3)S(=O)(=O)NC(=O)c3ccc(-n4ccc(OCCC5(C(F)(F)F)CC5)n4)nc3N1C2 (single isomer, unassigned) [Compound 391, 12,12-dimethyl-16-phenyl-8-(3-{2-[1-(trifluoromethyl)cyclopropyl]ethoxy}-1H-pyrazol-1-yl)-2λ^6-thia-3,9,11,18,23-pentaazatetracyclo[17.3.1.111,14.05,10]tetracosa-1(22),5,7,9,19(23),20-hexaene-2,2,4-trione]
Corrector Assay B % activity [1]: +++ (+++ is >60%)
Corrector Assay A % activity [2]: +++ (+++ is >60%)
EC50 [2]: < 1 µM

CC(C)(C)c1ccc2c(n1)N1C[C@@H](CCC(c3ccccn3)Nc3cccc(n3)S(=O)(=O)NC2=O)CC1(C)C (single isomer, unassigned) [Compound 293]
Corrector Assay B % activity [1]: +++ (+++ is >60%)
EC50 [1]: < 1 µM
Corrector Assay A % activity [2]: ++ (++ is 30-60%)
EC50 [2]: < 1 µM

CC1(C)CC2CCC(c3ccccc3)Nc3cccc(n3)S(=O)(=O)NC(=O)c3ccc(-n4ccc(OCCC5(C(F)(F)F)CC5)n4)nc3N1C2 (single isomer, unassigned) [Compound 387, 12,12-Dimethyl-17-phenyl-8-(3-{2-[1-(trifluoromethyl)cyclopropyl]ethoxy}-1H-pyrazol-1-yl)-2λ^6-thia-3,9,11,18,23-pentaazatetracyclo[17.3.1.111,14.05,10]tetracosa-1(22),5,7,9,19(23),20-hexaene-2,2,4-trione]
Corrector Assay B % activity [1]: +++ (+++ is >60%)
Corrector Assay A % activity [2]: +++ (+++ is >60%)
EC50 [2]: < 1 µM

CC1(C)C[C@@H]2CCC(c3ccccc3)Nc3cccc(n3)S(=O)(=O)NC(=O)c3ccc(-n4ccc(OCCC5C6(CC6)C56CC6)n4)nc3N1C2 (single isomer, unassigned) [Compound 363]
Corrector Assay B % activity [1]: +++ (+++ is >60%)
EC50 [1]: < 1 µM
Corrector Assay A % activity [2]: +++ (+++ is >60%)
EC50 [2]: < 1 µM

CC1(C)CC2CCC(c3ccccc3)Nc3cccc(n3)S(=O)(=O)NC(=O)c3ccc(-n4ccc(OCCC5(C(F)(F)F)CC5)n4)nc3N1C2 (single isomer, unassigned) [Compound 384, 12,12-Dimethyl-17-phenyl-8-(3-{2-[1-(trifluoromethyl)cyclopropyl]ethoxy}-1H-pyrazol-1-yl)-2λ^6-thia-3,9,11,18,23-pentaazatetracyclo[17.3.1.111,14.05,10]tetracosa-1(22),5,7,9,19(23),20-hexaene-2,2,4-trione]
Corrector Assay B % activity [1]: ++ (++ is 30-60%)
Corrector Assay A % activity [2]: + (+ is <30%)
EC50 [2]: < 1 µM

CC1(C)CC2CCC(c3ccccc3)Nc3cccc(n3)S(=O)(=O)NC(=O)c3ccc(-n4ccc(OCCC5(C(F)(F)F)CC5)n4)nc3N1C2 (single isomer, unassigned) [Compound 383, 12,12-Dimethyl-17-phenyl-8-(3-{2-[1-(trifluoromethyl)cyclopropyl]ethoxy}-1H-pyrazol-1-yl)-2λ^6-thia-3,9,11,18,23-pentaazatetracyclo[17.3.1.111,14.05,10]tetracosa-1(22),5,7,9,19(23),20-hexaene-2,2,4-trione]
Corrector Assay B % activity [1]: +++ (+++ is >60%)
EC50 [1]: < 1 µM
Corrector Assay A % activity [2]: ++ (++ is 30-60%)
EC50 [2]: < 1 µM

CC1(C)CC2CN1c1nc(-n3ccc(OCCC4(C(F)(F)F)CC4)n3)ccc1C(=O)NS(=O)(=O)c1cccc(n1)NCCC2c1ccccc1 (single isomer, unassigned) [Compound 385, 12,12-dimethyl-15-phenyl-8-(3-{2-[1-(trifluoromethyl)cyclopropyl]ethoxy}-1H-pyrazol-1-yl)-2λ^6-thia-3,9,11,18,23-pentaazatetracyclo[17.3.1.111,14.05,10]tetracosa-1(22),5,7,9,19(23),20-hexaene-2,2,4-trione]
Corrector Assay B % activity [1]: ++ (++ is 30-60%)
EC50 [1]: < 1 µM
Corrector Assay A % activity [2]: ++ (++ is 30-60%)
EC50 [2]: < 1 µM

CC1(C)C[C@@H]2CCC(c3ccccn3)Nc3cccc(n3)S(=O)(=O)NC(=O)c3ccc(-n4ccc(OCCC5(C(F)(F)F)CC5)n4)nc3N1C2 (single isomer, unassigned) [Compound 361]
Corrector Assay B % activity [1]: +++ (+++ is >60%)
EC50 [1]: < 1 µM
Corrector Assay A % activity [2]: +++ (+++ is >60%)
EC50 [2]: < 1 µM

CC1(C)C[C@@H]2CCCN(CC3COC3)c3cccc(n3)S(=O)(=O)NC(=O)c3ccc(-n4ccc(OCCC5(C(F)(F)F)CC5)n4)nc3N1C2 [Compound 359]
Corrector Assay B % activity [1]: +++ (+++ is >60%)
EC50 [1]: < 1 µM

CC1(C)C[C@@H]2CCCN(C[C@H](O)CO)c3cccc(n3)S(=O)(=O)NC(=O)c3ccc(-n4ccc(OCCC5(C(F)(F)F)CC5)n4)nc3N1C2 (single isomer, unassigned) [Compound 381]
Corrector Assay B % activity [1]: +++ (+++ is >60%)
EC50 [1]: < 1 µM

CC(C)(C)c1ccc2c(n1)N1C[C@@H](CCC(c3ccccn3)Nc3cccc(n3)S(=O)(=O)NC2=O)CC1(C)C (single isomer, unassigned) [Compound 292]
Corrector Assay B % activity [1]: +++ (+++ is >60%)
EC50 [1]: < 1 µM
Corrector Assay A % activity [2]: +++ (+++ is >60%)
EC50 [2]: < 1 µM

CCCC1(C)CC2CCCNc3cccc(n3)S(=O)(=O)NC(=O)c3ccc(-n4ccc(OCCC5(C(F)(F)F)CC5)n4)nc3N1C2 (single isomer, unassigned) [Compound 367, 12-methyl-12-propyl-8-(3-{2-[1-(trifluoromethyl)cyclopropyl]ethoxy}-1H-pyrazol-1-yl)-2λ^6-thia-3,9,11,18,23-pentaazatetracyclo[17.3.1.111,14.05,10]tetracosa-1(22),5,7,9,19(23),20-hexaene-2,2,4-trione]
Corrector Assay B % activity [1]: ++ (++ is 30-60%)
EC50 [1]: < 1 µM
Corrector Assay A % activity [2]: +++ (+++ is >60%)
EC50 [2]: < 1 µM

CC1(C)C[C@@H]2CCC(c3ccc(C(=O)O)cc3)Nc3cccc(n3)S(=O)(=O)NC(=O)c3ccc(-n4ccc(OCCC5(C(F)(F)F)CC5)n4)nc3N1C2 (single isomer, unassigned) [Compound 370]
Corrector Assay B % activity [1]: +++ (+++ is >60%)
EC50 [1]: 1 to 3 µM

CC1(C)CC2CC(c3ccccc3)CNc3cccc(n3)S(=O)(=O)NC(=O)c3ccc(-n4ccc(OCCC5(C(F)(F)F)CC5)n4)nc3N1C2 (single isomer, unassigned) [Compound 390, 12,12-dimethyl-16-phenyl-8-(3-{2-[1-(trifluoromethyl)cyclopropyl]ethoxy}-1H-pyrazol-1-yl)-2λ^6-thia-3,9,11,18,23-pentaazatetracyclo[17.3.1.111,14.05,10]tetracosa-1(22),5,7,9,19(23),20-hexaene-2,2,4-trione]
Corrector Assay B % activity [1]: +++ (+++ is >60%)
EC50 [1]: < 1 µM

CC1(C)C[C@@H]2CCC(c3cncnc3)Nc3cccc(n3)S(=O)(=O)NC(=O)c3ccc(-n4ccc(OCCC5(C(F)(F)F)CC5)n4)nc3N1C2 (single isomer, unassigned) [Compound 374]
Corrector Assay B % activity [1]: +++ (+++ is >60%)
EC50 [1]: < 1 µM
